Columns and labels:
SIK1 = biological target: T1, SIK1 (Homo sapiens, UniProt P57059); test: ADP-Glo kinase assay, SIK1; format: biochemical; conditions: ADP-Glo SIK kinase assay
T1 construct: purchased Carna Biosciences 02-131
Outline: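 Wells with 1% DMSO or 10 μM staurosporine (final) define the control window. The kinase reaction with substrate and ATP runs 120 min at RT, followed by ADP-Glo detection: ATP depletion (40 min) and ADP-derived luminescence (30 min).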

IL-10 = test: Mouse LPS-induced endotoxic shock, plasma IL-10; format: in vivo; set-up: key: +: statistically significant induction of IL-10; −: no effect on the level of IL-10; conditions: 3 mg/kg, p.o.; plasma 90 min after LPS challenge
Procedure: (§1) Injection of lipopolysaccharide (LPS) induces a rapid release of soluble tumour necrosis factor (TNFα) into the periphery. This model was used to assess prospective blockers of TNFα release in vivo.
(§2) Lipopolysaccharide (LPS) from Escherichia Coli serotype O111:B4 was obtained from Sigma Aldrich (Cat #L2630).
(§3) BALB/cAnNCrl mice (female, 18-20 g body weight) were obtained from Charles River (Calco, Italy). Mice were kept on a 12 h light/dark cycle. Temperature was maintained at 22±2° C., food and water were provided ad libitum.
(§4) Mice were dosed once by oral (p.o.) or subcutaneous (sc) route with the tested compound in the appropriate vehicle.
(§5) At the Tmax of compound, 100 μg of LPS (in H2O) was injected intraperitoneally to mice. A control group was included which comprises administering the vehicle without an LPS challenge.
(§6) Mice were sacrificed 90 min after LPS challenge and blood was collected in heparinised tubes. Plasma was obtained by centrifugation for 15 min, 2000×g at +4° C. and frozen at −80° C. before cytokine analysis.
(§7) TNFα and IL-10 were quantified in plasma by AlphaLISA detection kits obtained from PerkinElmer (Massachusetts, USA), Cat4 AL505C and AL502C, respectively.
(§8) Statistics were performed with Prism 5.03 software (GraphPad) using an ANOVA analysis of variance with Dunnett's post-hoc test versus LPS group.
(§9) Active compounds were defined as showing a statistically significant decrease in TNFα with or without a statistically significant induction of IL-10

SIK3 = biological target: T2, SIK3 (Homo sapiens, UniProt Q9Y2K2); test: ADP-Glo kinase assay, SIK3; format: biochemical; conditions: ADP-Glo SIK kinase assay
T2 construct: purchased SignalChem S12-11G-100
Outline: (§10)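 ADP-Glo luminescent assay of ADP formed by SIK2 or SIK3 with substrate after ATP addition, 120 min at RT. Remaining ATP depleted 40 min, then ADP converted to ATP and read by luciferase luminescence after 30 min. Controls: 1% DMSO and 10 μM staurosporine (final).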

SIK2 = biological target: T3, SIK2 (Homo sapiens, UniProt Q9H0K1); test: ADP-Glo kinase assay, SIK2; format: biochemical; conditions: ADP-Glo SIK kinase assay
T3 construct: purchased ThermoFisher Scientific PV4792
Outline: as §10

[1] = tested on: LPS-induced TNFα in monocyte-derived macrophages (MdM); test: MdM assay: LPS-triggered TNFα (ELISA); format: cell-based, human; conditions: Homo sapiens, Macrophage, 20 h, monocyte-derived macrophages, LPS 200 ng/mL, supernatant after 20 h; read-out: TNFα EC50
Outline: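 Human monocyte-derived macrophages from CD14+ bead-selected buffy-coat PBMCs, used on day 10, pre-treated with compound for 1 h at 37 °C (0.2% DMSO), then stimulated with 200 ng/mL LPS. Supernatant taken after 20 h for TNFα sandwich ELISA (IL-10 at 2 h).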

TNFα = test: Mouse LPS-induced endotoxic shock, plasma TNFα; format: in vivo; set-up: key: +: statistically significant inhibition of TNFα; −: no effect on the level of TNFα; conditions: 3 mg/kg, p.o.; plasma 90 min after LPS challenge
Procedure: as §1, §2, §3, §4, §5, §6, §7, §8, §9

[2] = tested on: LPS triggered IL-10 secretion in monocytes; test: Monocytes assay: LPS-triggered IL-10 (ELISA); format: cell-based, human; conditions: LPS 200 ng/mL, supernatant after 4 h, maximal fold change vs LPS only
Outline: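 Human CD14+ monocytes, magnetically isolated from buffy-coat PBMCs, were seeded at 100 000 cells/well and preincubated with compound for 1 h at 37° C (0.2% DMSO). LPS was then added at a final 200 ng/mL for 4 h. Supernatant IL-10 was quantified by chemiluminescent sandwich ELISA against a standard curve.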

[3] = tested on: LPS-induced TNFα in monocytes; test: Monocytes assay: LPS-triggered TNFα (ELISA); format: cell-based, human; conditions: Homo sapiens, Monocyte, 4 h, LPS 200 ng/mL, supernatant after 4 h
Outline: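 Human CD14+ monocytes from buffy-coat PBMCs (magnetic bead selection) were seeded at 100 000 cells/well and pretreated with compound for 1 h at 37° C (0.2% DMSO). They were then stimulated with 200 ng/mL LPS for 4 h, and supernatant TNFα was measured by chemiluminescent sandwich ELISA as percent inhibition.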

T1 sequence (P57059 whole entry): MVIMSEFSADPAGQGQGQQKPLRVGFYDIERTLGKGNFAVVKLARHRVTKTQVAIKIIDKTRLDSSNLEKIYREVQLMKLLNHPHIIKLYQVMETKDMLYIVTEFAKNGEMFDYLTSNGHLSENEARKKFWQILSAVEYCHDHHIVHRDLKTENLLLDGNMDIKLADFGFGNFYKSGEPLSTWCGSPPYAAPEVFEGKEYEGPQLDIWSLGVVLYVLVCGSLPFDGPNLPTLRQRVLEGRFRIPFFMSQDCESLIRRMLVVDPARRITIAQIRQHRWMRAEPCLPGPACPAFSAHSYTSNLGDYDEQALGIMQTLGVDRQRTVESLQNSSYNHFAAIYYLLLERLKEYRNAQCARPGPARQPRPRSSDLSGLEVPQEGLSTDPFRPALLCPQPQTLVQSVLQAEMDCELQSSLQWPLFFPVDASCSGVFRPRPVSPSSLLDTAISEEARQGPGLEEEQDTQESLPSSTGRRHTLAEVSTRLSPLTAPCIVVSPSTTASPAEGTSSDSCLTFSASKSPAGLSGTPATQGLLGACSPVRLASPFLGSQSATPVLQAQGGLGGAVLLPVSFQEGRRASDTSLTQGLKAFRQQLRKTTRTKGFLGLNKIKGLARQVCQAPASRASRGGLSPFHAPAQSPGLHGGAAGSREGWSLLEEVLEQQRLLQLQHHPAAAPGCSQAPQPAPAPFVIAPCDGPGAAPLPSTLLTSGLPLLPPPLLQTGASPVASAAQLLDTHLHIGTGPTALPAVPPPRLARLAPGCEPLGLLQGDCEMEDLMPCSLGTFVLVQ
T3 sequence (Q9H0K1 whole entry): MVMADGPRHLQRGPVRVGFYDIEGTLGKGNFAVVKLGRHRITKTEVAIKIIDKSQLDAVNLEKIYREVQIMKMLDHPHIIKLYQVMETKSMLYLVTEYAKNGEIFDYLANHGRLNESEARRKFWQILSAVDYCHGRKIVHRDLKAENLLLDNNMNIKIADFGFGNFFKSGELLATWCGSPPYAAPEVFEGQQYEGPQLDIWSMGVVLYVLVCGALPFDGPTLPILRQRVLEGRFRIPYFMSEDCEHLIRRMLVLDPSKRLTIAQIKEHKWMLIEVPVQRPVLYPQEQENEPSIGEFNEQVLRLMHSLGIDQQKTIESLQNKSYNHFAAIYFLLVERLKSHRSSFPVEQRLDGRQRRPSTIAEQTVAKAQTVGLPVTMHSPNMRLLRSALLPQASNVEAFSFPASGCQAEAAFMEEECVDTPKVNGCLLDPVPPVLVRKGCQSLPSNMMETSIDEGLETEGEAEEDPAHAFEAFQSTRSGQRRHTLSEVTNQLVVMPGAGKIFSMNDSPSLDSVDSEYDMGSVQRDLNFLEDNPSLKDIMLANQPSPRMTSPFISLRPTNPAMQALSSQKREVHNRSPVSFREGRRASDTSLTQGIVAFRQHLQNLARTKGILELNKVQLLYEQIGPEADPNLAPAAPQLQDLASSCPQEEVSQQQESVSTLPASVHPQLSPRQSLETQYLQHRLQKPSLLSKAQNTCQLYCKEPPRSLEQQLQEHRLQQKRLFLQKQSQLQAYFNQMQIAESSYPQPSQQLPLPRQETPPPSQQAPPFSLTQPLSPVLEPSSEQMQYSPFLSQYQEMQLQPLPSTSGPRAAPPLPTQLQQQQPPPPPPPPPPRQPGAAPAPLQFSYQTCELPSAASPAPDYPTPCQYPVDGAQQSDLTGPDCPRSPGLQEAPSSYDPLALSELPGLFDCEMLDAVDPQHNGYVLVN
T2 sequence (Q9Y2K2 whole entry): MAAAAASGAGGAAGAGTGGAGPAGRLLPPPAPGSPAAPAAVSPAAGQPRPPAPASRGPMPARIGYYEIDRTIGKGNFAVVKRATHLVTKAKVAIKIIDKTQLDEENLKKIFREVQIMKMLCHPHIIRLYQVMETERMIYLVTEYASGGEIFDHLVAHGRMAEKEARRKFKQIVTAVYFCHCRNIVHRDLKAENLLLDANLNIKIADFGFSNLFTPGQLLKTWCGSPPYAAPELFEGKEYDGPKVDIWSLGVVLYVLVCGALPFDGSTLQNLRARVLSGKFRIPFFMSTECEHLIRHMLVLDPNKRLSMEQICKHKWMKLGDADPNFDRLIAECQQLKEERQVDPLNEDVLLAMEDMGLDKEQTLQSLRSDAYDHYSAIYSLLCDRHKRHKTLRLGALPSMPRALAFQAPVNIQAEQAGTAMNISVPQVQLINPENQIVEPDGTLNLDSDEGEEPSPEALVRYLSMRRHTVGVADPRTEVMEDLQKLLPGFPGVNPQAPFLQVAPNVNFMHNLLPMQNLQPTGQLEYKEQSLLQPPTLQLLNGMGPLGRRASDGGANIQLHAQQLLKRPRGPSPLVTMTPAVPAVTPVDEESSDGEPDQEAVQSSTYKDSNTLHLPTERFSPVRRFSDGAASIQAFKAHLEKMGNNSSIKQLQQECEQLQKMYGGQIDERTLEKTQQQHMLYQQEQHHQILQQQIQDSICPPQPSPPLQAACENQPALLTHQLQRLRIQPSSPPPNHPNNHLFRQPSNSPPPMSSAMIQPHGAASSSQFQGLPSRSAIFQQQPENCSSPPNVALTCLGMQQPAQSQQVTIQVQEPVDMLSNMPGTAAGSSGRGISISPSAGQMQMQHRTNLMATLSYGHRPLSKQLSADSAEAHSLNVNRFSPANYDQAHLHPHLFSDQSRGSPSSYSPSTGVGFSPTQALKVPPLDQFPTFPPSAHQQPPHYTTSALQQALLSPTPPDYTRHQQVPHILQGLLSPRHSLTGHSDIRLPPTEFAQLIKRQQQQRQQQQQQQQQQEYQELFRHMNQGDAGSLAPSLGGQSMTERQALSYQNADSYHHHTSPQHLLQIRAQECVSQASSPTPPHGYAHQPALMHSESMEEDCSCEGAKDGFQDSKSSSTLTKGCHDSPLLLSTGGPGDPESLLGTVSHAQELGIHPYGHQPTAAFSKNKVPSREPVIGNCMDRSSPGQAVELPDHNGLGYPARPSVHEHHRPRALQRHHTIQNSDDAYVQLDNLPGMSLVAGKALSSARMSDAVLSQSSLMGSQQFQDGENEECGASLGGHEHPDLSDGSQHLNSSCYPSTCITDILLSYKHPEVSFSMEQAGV

| SMILES | IC50 (SIK1) [nM] | IL-10 (IL-10) | IC50 (SIK3) [nM] | IC50 (SIK2) [nM] | EC50 [1] [nM] | TNFα (TNFα) | IL-10 FCmax median [2] | EC50 [3] [nM] |
| --- | --- | --- | --- | --- | --- | --- | --- | --- |
| COc1cc(-c2cnc3cc(OCCCN4CCCCC4)ccn23)cc(OC(F)F)c1C(=O)NC1CC1 [compound 16, N-cyclopropyl-2-(difluoromethoxy)-6-methoxy-4-[7-[3-(1-piperidyl)propoxy]imidazo [1,2-a]pyridin-3-yl]benzamide] | 10 to 100 | − | 0.01 to 10 | 0.01 to 10 | 0.1 to 100 | − |  |  |
| CCOC(=O)COc1ccn2c(-c3cc(OC)c(C(=O)NC4CC4)c(OC(F)F)c3)cnc2c1 [Cpd 268, ethyl 2-[3-[4-(cyclopropylcarbamoyl)-3-(difluoromethoxy)-5-methoxy-phenyl]imidazo[1,2-a]pyridin-7-yl]oxyacetate] | 10 to 100 |  | 0.01 to 10 | 10 to 100 |  |  | +++ (>4.5) | 100 to 1000 |
| COc1cc(-c2cnc3cc(OCCCN4CCN(C(C)C)CC4)ccn23)cc(OC(F)F)c1C(=O)NC1CC1 [Cpd 279, N-cyclopropyl-2-(difluoromethoxy)-4-[7-[3-(4-isopropylpiperazin-1-yl)propoxy]imidazo[1,2-a]pyridin-3-yl]-6-methoxy-benzamide] | 0.01 to 10 |  | 0.01 to 10 | 0.01 to 10 |  |  | +++ (>4.5) | 0.1 to 100 |
| COc1cc(-c2cnc3cc(OCCCN4CCC(F)(CO)CC4)ccn23)cc(OC(F)F)c1C(=O)NC1CC1 [compound 360, N-cyclopropyl-2-(difluoromethoxy)-4-[7-[3-[4-fluoro-4-(hydroxymethyl)-1-piperidyl]propoxy]imidazo [1,2-a]pyridin-3-yl]-6-methoxy-benzamide] | 10 to 100 |  | 0.01 to 10 | 0.01 to 10 |  |  | ++ (>1.5-4.5) | 0.1 to 100 |
| COc1cc(-c2cnc3cc(OC[C@@H]4CCNC4)ccn23)cc(OC(F)F)c1C(=O)NC1CC1 [Cpd 334, N-cyclopropyl-2-(difluoromethoxy)-6-methoxy-4-[7-[[(3R)-pyrrolidin-3-yl]methoxy]imidazo[1,2-a]pyridin-3-yl]benzamide] | 10 to 100 |  | 0.01 to 10 | 0.01 to 10 |  |  | ++ (>1.5-4.5) | 100 to 1000 |
| COc1cc(-c2cnc3cc(OCCCN4CC5(CCC5)C4)ccn23)cc(OC(F)F)c1C(=O)NC1CC1 [compound 293, 4-[7-[3-(2-azaspiro[3.3]heptan-2-yl)propoxy]imidazo[1,2-a]pyridin-3-yl]-N-cyclopropyl-2-(difluoromethoxy)-6-methoxy-benzamide] | 10 to 100 |  | 0.01 to 10 | 0.01 to 10 |  |  | +++ (>4.5) | 0.1 to 100 |
| COc1cc(-c2cnc3cc(OCCCN4CCC(F)(C(N)=O)CC4)ccn23)cc(OC(F)F)c1C(=O)NC1CC1 [Cpd 361, l-[3-[3-[4-(cyclopropylcarbamoyl)-3-(difluoromethoxy)-5-methoxy-phenyl]imidazo[1,2-a]pyridin-7-yl]oxypropyl]-4-fluoro-piperidine-4-carboxamide] | 10 to 100 |  | 0.01 to 10 | 0.01 to 10 |  |  | ++ (>1.5-4.5) | 0.1 to 100 |
| COc1cc(-c2cnc3cc(OCCCN4CCOCC45CCC5)ccn23)cc(OC(F)F)c1C(=O)NC1CC1 [compound 281, N-cyclopropyl-2-(difluoromethoxy)-6-methoxy-4-[7-[3-(8-oxa-5-azaspiro[3.5]nonan-5-yl)propoxy]imidazo[1,2-a]pyridin-3-yl]benzamide] | 0.01 to 10 |  | 0.01 to 10 | 0.01 to 10 |  |  | +++ (>4.5) | 0.1 to 100 |
| CCOC(=O)C1(O)CCN(CCCOc2ccn3c(-c4cc(OC)c(C(=O)NC5CC5)c(OC(F)F)c4)cnc3c2)CC1 [compound 381, ethyl 1-[3-[3-[4-(cyclopropylcarbamoyl)-3-(difluoromethoxy)-5-methoxy-phenyl]imidazo[1,2-a]pyridin-7-yl]oxypropyl]-4-hydroxy-piperidine-4-carboxylate] | 10 to 100 |  | 0.01 to 10 | 0.01 to 10 |  |  | ++ (>1.5-4.5) | 0.1 to 100 |
| COc1cc(-c2cnc3cc(OCCCN4CCC(O)C4)ccn23)cc(OC(F)F)c1C(=O)NC1CC1 (stereo not drawn) [compound 319, N-cyclopropyl-2-(difluoromethoxy)-4-[7-[3-(3-hydroxypyrrolidin-1-yl)propoxy]imidazo[1,2-a]pyridin-3-yl]-6-methoxy-benzamide] | 10 to 100 |  | 0.01 to 10 | 0.01 to 10 |  |  | ++ (>1.5-4.5) | 100 to 1000 |

From patent publication US12264156B2, “Compounds and pharmaceutical compositions thereof for the treatment of diseases” (GALAPAGOS NV, priority 2018, dated 2025)
